Data taken from patent US6369107B1, “Combined use of diclofenac and tribenoside to treat osteoarthritis” (KS Biomedix Ltd., priority 1994, dated 2002).
“And” between values parts separate entries of the source, which are not always exact repeats. Identical values can stand only once.

Legend:
[1] = test system: matrix of cartilages of the tibial plateau of STR/ORT mice; assay: Quantitative interference microscopy of dry mass per unit area in the tibial plateau cartilage matrix of treated STR/ORT mice; type: in vivo; settings: for effect on the dry mass per unit area (and therefore water content) of medial cartilage: feeding STR/ORT mice
Source text: The extra-cellular factor was studied by quantitative interference microscopy, as described by Ross, “Phase Contrast and Interference Microscopy for Cell Biologists” Arnold: London, p.36 (1967). This form of microscopy allows the investigator to measure the dry mass, per unit area (Cs), in selected regions of a section or of a cell. This measurement then allows the assessment of water content (Cw): […]

[2] = test system: STR/ORT mice; assay: Development of osteoarthritis / cartilage damage in STR/ORT mice; type: in vivo; settings: fraction of mice
Source text: The present invention is based on the postulate that two influences are involved in the development of OA: a cellular and an extracellular factor.

[3] = test system: STR/ORT mice; settings: mice given the drug; background; cited from earlier work
[4] = test system: monoamine oxidase (MAO); settings: mice given the drug; background, Chambers et al 1992; cited from earlier work
[5] = test system: monoamine oxidase (MAO); assay: Localisation of monoamine oxidase (MAO) activity in chondrocytes of potentially osteoarthritic cartilage of mice; type: in vivo; settings: feeding STR/ORT mice
Source text: In normal articular cartilage (human as well as murine), monoamine oxidase in chondrocytes can be found located precisely in mitochondria. During the development of the natural disease in mice, these granules become larger and apparently burst, the monoamine oxidase (MAO) activity becomes distributed through the cytoplasm of the chondrocytes and even into the surrounding matrix. This was described by Chambers et al, Int. J. Exp. Path. 73:115-123 (1992), who related the MAO activity in the medial as against that in the (normal) lateral cartilage in untreated mice and in those treated with diclofenac.
There was no sign of activity in the general cytoplasm or in the matrix.
Results are shown in Table 1, i.e. the dry mass per μm in the matrix of cartilages of the tibial plateau of STR/ORT mice after various treatments. Three mice were treated with diclofenac (Df) alone, four with tribenoside (Tb) alone, and four with both (Df+Tb).

[6] = STR/ORT mice, matrix of tibial plateau cartilage, one line per mouse, * duplicate sections

| Structure (SMILES) | Mass pg/unit area in the medial cartilage [1, 6] | effect on the dry mass per unit area (and therefore water content) of medial cartilage [1] | mice having severe OA [2] | development of OA [3] | localisation of the MAO in the potentially osteoarthritic cartilage [4] | Mass pg/unit area in the lateral cartilage [1, 6] [pg/unit area] | localisation of MAO activity / MAO activity in the medial cartilage [5] |
| --- | --- | --- | --- | --- | --- | --- | --- |
| O=C(O)Cc1ccccc1Nc1c(Cl)cccc1Cl [Df, diclofenac sodium] | 0.51 pg/unit area and 0.50 pg/unit area and 0.52 pg/unit area | no effect | at least 9/10 | did not stop the development of OA | marked improvement | – | – |
| CCOC1O[C@H]([C@@H](COCc2ccccc2)OCc2ccccc2)[C@H](OCc2ccccc2)[C@H]1O (stereo partly drawn) [Tb, tribenoside] | 2.54 pg/unit area and 2.76 pg/unit area and 2.58 pg/unit area and 2.77 pg/unit area and 2.29 pg/unit area and 2.44 pg/unit area and 3.14 pg/unit area | markedly increased | – | – | – | 2.84 | did not improve |
